Results on four compounds are retold here after patent EP0408330A2, “Anti-infective agents, process for their preparation and their use in therapy” (priority 1989, dated 1991).

One assay deals with Gram negative bacteria. Put plainly: In vitro assessment of Gram negative activity (MIC/MBC panel). It is filed as cell-based. Here is the method:
(§1) Minimum inhibitory concentrations (MIC), minimum bactericidal concentrations (MBC), rates of killing and the incidence of naturally occurring resistant mutants were determined for silver fusidate prepared according to Example 1. MICs were determined by the plate dilution method using IsoSensitest (IsoSensitest is a Trade Mark) media supplemented where necessary with 5% lysed horse blood. Two inocula were used, 10⁶ and 10⁴ cfu. MICs were read after overnight incubation in the appropriate atmosphere. The plates bearing the 10⁶ inocula were replicated using velvet pads for the determination of MBC which is defined as the lowest antibiotic concentration killing at least 99.9% of the original inoculum.
(§2) 20 strains of the following species were tested:
(§3) Gram negative: Escherichia coli, Enterobacter spp., Klebsiella pneumoniae, Acinetobacter spp., Pseudomonas aeruginosa, Providencia stuartii, Proteus mirabilis, indole-positive Proteae (10 each of Prov. rettgeri and Pr. vulgaris).

In the next assay the test system is Pseudomas sp. Put plainly: MIC / MBC, plate dilution method (MBC by replica plating with velvet pads). It is filed as cell-based, Pseudomonas aeruginosa. On the procedure: as §1, §2, §3
The test system of assay [1] is Gram positive and Gram negative bacteria and Candida albicans. Nature of the assay: In vitro assessment of spectrum of activity (MIC/MBC panel). Particulars: compared to sodium fusidate and silver sulphadiazine. It is filed as cell-based. On the procedure: as §1, §2
(§4) Gram positive: methicillin-resistant Staph. aureus (MRSA), methicillin-sensitive Staph. aureus (MSSA), methicillin-resistant Staph. epidermidis (MRSE), Enterocci, Streptococcus pyogenes, Candida albicans, Clostridium spp.
as §3

Assay [2] has as its system one particular strain of Staphyloccus. Nature of the assay: Rates of killing. Particulars: non-growing state compared with growing state. In kind it is cell-based. Here is the method:
as §1
This is a very interesting observation because it is known that certain strains of Staphylococcus colonize, e.g., the nose, creating in the host a carrier state. Carrier state hosts are a constant source of potential infection both for themselves and those they come in contact with. This is a particularly troublesome source of infections in the hospital environment. It is recognized that the cheapest and most efficient way off removing this problem from a hospital is to remove or discharge the carrier. […]

Assay [3] relates to various strains of Staphylococcus. Nature of the assay: Incidence of naturally occurring resistant mutants. It is filed as cell-based. Particulars: absence of growth in the presence of 100 µg/ml. On the procedure:
as §1

Another assay relates to MRSA. Put plainly: MIC / MBC, plate dilution method (MBC by replica plating with velvet pads). In kind it is cell-based, methicillin-resistant Staph. aureus (MRSA). Particulars: inoculum of 10⁶ org/ml, 20 strains. On the procedure: as §1, §2, §4
Assay [4] has as its system remaining Gram positive organisms. Put plainly: MIC determination, zinc fusidate panel. In kind it is cell-based. Particulars: remaining Gram positive organisms of the panel. Here is the method:
(§5) MICs were determined for zinc fusidate prepared according to Example 3 using the following Gram positive and Gram negative panels:
(§6) 4 strains of Staphylococcus aureus (2 methicillin-resistant, 2 methicilllin-sensitive) and 2 strains each of coagulase-negative staphylococci, Staph. saprophyticus, Enterococci, Streptococcus pyogenes, Strept. agalactiae, Listeria monocytogenes, diphtheroids and Bacillus spp., 2 strains each of Escherichia coli, Klebsiella pneumoniae, Pseudomonas aeruginosa, Providencia stuartii, Proteus morganii, Salmonella typhimurium, Acinetobacter spp., Citrobacter freundii, Serratia marcescens and Enterobacter cloacae.

The subject of assay [5] is coagulase negative Staphylococci. Nature of the assay: MIC determination, zinc fusidate panel. It is filed as cell-based. Particulars: 2 strains. On the procedure: as §5, §6
Another assay has as its system Gram positive bacteria. Nature of the assay: MIC determination, zinc fusidate panel, overall assessment. In kind it is cell-based. Here is the method: as §5, §6

Consider `CC(=O)O[C@H]1C[C@@]2(C)[C@@H](C[C@@H](O)[C@H]3[C@@]4(C)CC[C@@H](O)[C@@H](C)[C@@H]4CC[C@@]32C)/C1=C(\CCC=C(C)C)C(=O)O` [sodium fusidate], for which the Gram negative activity result in the assay on Gram negative bacteria is listed as “total lack of Gram negative activity”.

In the assay with Pseudomas sp., silver fusidate returned an MBC range of 32 to 64 µg/mL and an MIC range of 32 to 64 µg/mL. In addition, in assay [1], the spectrum of activity result is “broad spectrum of activity”. Besides, the rate of killing entry in [2] is reported as “killed more rapidly in a non-growing state”. Moreover, in assay [3], the “incidence of silver fusidate resistant mutants” value is given as “too low to be measured”. In the assay on MRSA, this compound registered an MIC range of 0.13 to 64 µg/mL.

Turning to “silver salt of N¹-(pyrimidin-2-yl) sulphanilamide [silver sulphadiazine, reference compound]”, in the assay on MRSA (lowest concentration killing at least 99.9% of the original inoculum), the MBC range lay in the range of 128 to 256 µg/mL.

As to zinc fusidate, the MIC range was less than 1 to 10 µg/mL in assay [4] and 10 to 100 µg/mL in [5]. The “activity against Gram positive bacteria” value in the assay on Gram positive bacteria is “demonstrates activity”.
